What was measured:
Assay type in all cases: biochemical
PDE1C = PDE1C (Homo sapiens, UniProt Q14123); experiment: PDE1 inhibition assay (SPA), PDE1C; conditions: concentration required to reach 50% inhibition of the enzyme; 15 nM tritium labelled cAMP; read-out: PDE1C inhibition (nM or %): IC50
How it was run: (§1)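 A scintillation proximity assay used enzyme sufficient for 20–25% substrate conversion and 15 nM tritiated cAMP in 50 mM HEPES pH 7.6, 10 mM MgCl2, 0.02% Tween20 and 0.1 mg/ml BSA, run for 1 h at room temperature. Reactions were stopped with yttrium silicate SPA beads. IC50 values were derived from activity relative to uninhibited control.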

PDE1A = PDE1A (Homo sapiens, UniProt P54750); experiment: PDE1 inhibition assay (SPA), PDE1A; conditions: for IC50: concentration required to reach 50% inhibition of the enzyme, 15 nM tritium labelled cAMP, read-out: PDE1A inhibition (nM or %): IC50
PDE1A, sequence (P54750 whole entry): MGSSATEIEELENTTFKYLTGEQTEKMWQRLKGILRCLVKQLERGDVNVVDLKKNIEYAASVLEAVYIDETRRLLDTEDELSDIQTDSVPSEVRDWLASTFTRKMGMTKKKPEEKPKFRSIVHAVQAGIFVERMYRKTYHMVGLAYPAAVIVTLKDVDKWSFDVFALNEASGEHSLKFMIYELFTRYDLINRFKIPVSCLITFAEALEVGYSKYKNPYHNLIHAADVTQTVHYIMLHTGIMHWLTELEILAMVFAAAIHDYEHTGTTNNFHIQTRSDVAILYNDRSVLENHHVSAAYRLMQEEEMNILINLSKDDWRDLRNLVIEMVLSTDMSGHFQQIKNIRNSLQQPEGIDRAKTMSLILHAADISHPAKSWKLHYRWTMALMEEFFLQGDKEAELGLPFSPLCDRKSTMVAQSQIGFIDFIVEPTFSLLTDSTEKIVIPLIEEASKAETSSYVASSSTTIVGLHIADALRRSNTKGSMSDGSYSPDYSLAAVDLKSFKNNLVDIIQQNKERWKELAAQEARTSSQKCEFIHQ
How it was run: as §1

PDE1B = PDE1B (Homo sapiens, UniProt Q01064); experiment: PDE1 inhibition assay (SPA), PDE1B; conditions: for IC50: concentration required to reach 50% inhibition of the enzyme, 15 nM tritium labelled cAMP, read-out: PDE1B inhibition (nM or %): IC50
PDE1B, sequence (Q01064 whole entry): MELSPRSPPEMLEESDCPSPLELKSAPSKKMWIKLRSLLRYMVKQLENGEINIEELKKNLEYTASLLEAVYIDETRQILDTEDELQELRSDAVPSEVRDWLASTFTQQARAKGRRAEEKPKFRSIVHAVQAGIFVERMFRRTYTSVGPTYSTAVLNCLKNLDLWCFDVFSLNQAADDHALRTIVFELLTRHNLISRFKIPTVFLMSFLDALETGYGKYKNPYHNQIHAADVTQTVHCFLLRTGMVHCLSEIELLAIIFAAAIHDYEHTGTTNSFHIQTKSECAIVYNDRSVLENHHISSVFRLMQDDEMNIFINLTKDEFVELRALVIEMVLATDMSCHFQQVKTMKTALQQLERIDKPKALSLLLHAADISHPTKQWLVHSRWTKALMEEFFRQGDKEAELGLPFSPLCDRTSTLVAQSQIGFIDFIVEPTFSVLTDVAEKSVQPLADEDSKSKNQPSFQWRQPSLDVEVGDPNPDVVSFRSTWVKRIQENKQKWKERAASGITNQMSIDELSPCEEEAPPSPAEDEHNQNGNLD
How it was run: as §1

PDE1C, sequence (Q14123 whole entry): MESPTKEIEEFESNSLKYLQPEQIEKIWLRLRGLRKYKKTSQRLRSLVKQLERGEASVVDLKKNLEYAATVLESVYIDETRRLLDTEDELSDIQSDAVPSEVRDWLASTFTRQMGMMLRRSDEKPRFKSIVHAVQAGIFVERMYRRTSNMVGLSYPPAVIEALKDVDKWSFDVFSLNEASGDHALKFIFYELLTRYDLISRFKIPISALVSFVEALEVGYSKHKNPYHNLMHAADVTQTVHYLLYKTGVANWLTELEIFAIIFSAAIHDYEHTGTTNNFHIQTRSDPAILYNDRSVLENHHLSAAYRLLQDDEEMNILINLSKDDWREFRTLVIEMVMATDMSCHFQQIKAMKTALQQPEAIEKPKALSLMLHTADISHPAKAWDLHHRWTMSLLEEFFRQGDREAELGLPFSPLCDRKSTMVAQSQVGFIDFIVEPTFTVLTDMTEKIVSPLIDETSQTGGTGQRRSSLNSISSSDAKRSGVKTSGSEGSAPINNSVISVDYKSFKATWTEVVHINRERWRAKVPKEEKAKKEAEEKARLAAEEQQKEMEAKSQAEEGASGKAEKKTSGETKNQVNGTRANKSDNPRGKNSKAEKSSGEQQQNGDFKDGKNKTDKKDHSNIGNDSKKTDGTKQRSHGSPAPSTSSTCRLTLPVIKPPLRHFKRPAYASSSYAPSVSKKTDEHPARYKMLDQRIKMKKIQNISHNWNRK

Compound	IC50 (PDE1C)	IC50 (PDE1A)	IC50 (PDE1B)	inhibition at 10 µM (PDE1A; 1 h, % inhibition of the enzyme at a concentration of 10 micro molar of the compound, read-out: PDE1A inhibition (nM or %): % inhib)	inhibition at 10 µM (PDE1B; 1 h, % inhibition of the enzyme at a concentration of 10 micro molar of the compound, read-out: PDE1B inhibition (nM or %): % inhib)
CCCCC(CC)c1nnc2c(=O)n(Cc3cccc(F)c3)ccn12 (stereo not drawn) [7-(3-Fluorobenzyl)-3-(heptan-3-yl)-[1,2,4]triazolo[4,3-a]pyrazin-8(7H)-one]	480 nM	3200 nM	1600 nM		
Cc1ccc(Cc2cn3c(C4CCOCC4)nnc3c(=O)n2CC2CCCCCC2)cc1 [7-(cycloheptylmethyl)-6-(4-methylbenzyl)-3-(tetrahydro-2H-pyran-4-yl)-[1,2,4]triazolo[4,3-a]pyrazin-8(7H)-one]	0.37 nM	0.86 nM	1 nM		
Cc1ccc(Cc2cn3c(C4CCOCC4)nnc3c(=O)n2CC2CCCCC2)cc1 [7-(cyclohexylmethyl)-6-(4-methylbenzyl)-3-(tetrahydro-2H-pyran-4-yl)-[1,2,4]triazolo[4,3-a]pyrazin-8(7H)-one]	1 nM	1 nM	2 nM		
O=c1c2nnc(C3CCOCC3)n2cc(Cc2cccc(F)c2)n1CC1CCCCC1 [7-(cyclohexylmethyl)-6-(3-fluorobenzyl)-3-(tetrahydro-2H-pyran-4-yl)-[1,2,4]triazolo[4,3-a]pyrazin-8(7H)-one]	6 nM	24 nM	22 nM		
O=c1c2nnc([C@H]3CC[C@H](O)CC3)n2ccn1Cc1cccc(F)c1 [7-(3-Fluorobenzyl)-3-((1r,4r)-4-hydroxycyclohexyl)-[1,2,4]triazolo[4,3-a]pyrazin-8(7H)-one]	200 nM	1000 nM	630 nM		
CCCc1nnc2c(=O)n(Cc3ccccc3C)ccn12 [7-(2-Methylbenzyl)-3-propyl-[1,2,4]triazolo[4,3-a]pyrazin-8(7H)-one]	2400 nM			53%	42%
O=c1c2nnc(CC3CCOC3)n2ccn1Cc1cccc(F)c1 (stereo not drawn) [7-(3-Fluorobenzyl)-3-((tetrahydrofuran-3-yl)methyl)-[1,2,4]triazolo[4,3-a]pyrazin-8(7H)-one]	420 nM	1200 nM	1900 nM		
CCCc1nnc2c(=O)n(CC34CC5CC(CC(C5)C3)C4)ccn12 [7-(((3r,5r,7r)-adamantan-1-yl)methyl)-3-propyl-[1,2,4]triazolo[4,3-a]pyrazin-8(7H)-one]	63 nM	180 nM	210 nM		
Cc1cccc(Cc2cn3c(C4CCOCC4)nnc3c(=O)n2Cc2cccc(F)c2)c1 [7-(3-fluorobenzyl)-6-(3-methylbenzyl)-3-(tetrahydro-2H-pyran-4-yl)-[1,2,4]triazolo[4,3-a]pyrazin-8(7H)-one]	2 nM	6 nM	9 nM		

Results, then the molecule that gave them:

IC50 (PDE1C)	IC50 (PDE1A)	IC50 (PDE1B)	inhibition at 10 µM (PDE1A; 1 h, % inhibition of the enzyme at a concentration of 10 micro molar of the compound, read-out: PDE1A inhibition (nM or %): % inhib)	inhibition at 10 µM (PDE1B; 1 h, % inhibition of the enzyme at a concentration of 10 micro molar of the compound, read-out: PDE1B inhibition (nM or %): % inhib)	Compound
46 nM	236 nM	190 nM			CCCc1nnc2c(=O)n(Cc3cccc(F)c3)c(C)cn12 [7-(3-fluorobenzyl)-6-methyl-3-propyl-[1,2,4]triazolo[4,3-a]pyrazin-8(7H)-one]
430 nM	2000 nM	2500 nM			CCCc1nnc2c(=O)n(Cc3ccccc3Cl)ccn12 [7-(2-Chlorobenzyl)-3-propyl-[1,2,4]triazolo[4,3-a]pyrazin-8(7H)-one]
780 nM	1000 nM	930 nM			CCCc1nnc2c(=O)n(Cc3ccc(C)cc3)ccn12 [7-(4-Methylbenzyl)-3-propyl-[1,2,4]triazolo[4,3-a]pyrazin-8(7H)-one]
44 nM	66 nM	32 nM			CCCc1nnc2c(=O)n(Cc3ccc(OC)cc3)c(C)cn12 [7-(4-methoxybenzyl)-6-methyl-3-propyl-[1,2,4]triazolo[4,3-a]pyrazin-8(7H)-one]

Reference: patent US10150771B2, “Triazolopyrazinones as PDE1 inhibitors” (H. Lundbeck A/S, priority 2014, dated 2018)
